Remaining binding data for four molecules are collected here from publication PMC10004634 (PLOS ONE, 2023).

Like-named read-outs stand apart in the source and are kept apart here.

Targets include CDK2 (Homo sapiens, UniProt P24941); CAMK1D (Homo sapiens, UniProt Q8IU85); MELK (Homo sapiens, UniProt Q14680); PDGFRB (Homo sapiens, UniProt P09619); EGFR (Homo sapiens, UniProt P00533); WEE1 (Homo sapiens, UniProt P30291).
Assay in all cases: biochemical
Design in all cases: KINOMEscan scanMAX competition binding, DNA-tagged kinases, qPCR read-out, percent control at 300 nM
A general note: Real-time PCR tracks product formation cycle by cycle.

The next assay addresses T1, PIP5K2C (Homo sapiens, UniProt Q8TBX8).
T1 construct: gene PIP4K2C
T1 sequence (Q8TBX8 1-421): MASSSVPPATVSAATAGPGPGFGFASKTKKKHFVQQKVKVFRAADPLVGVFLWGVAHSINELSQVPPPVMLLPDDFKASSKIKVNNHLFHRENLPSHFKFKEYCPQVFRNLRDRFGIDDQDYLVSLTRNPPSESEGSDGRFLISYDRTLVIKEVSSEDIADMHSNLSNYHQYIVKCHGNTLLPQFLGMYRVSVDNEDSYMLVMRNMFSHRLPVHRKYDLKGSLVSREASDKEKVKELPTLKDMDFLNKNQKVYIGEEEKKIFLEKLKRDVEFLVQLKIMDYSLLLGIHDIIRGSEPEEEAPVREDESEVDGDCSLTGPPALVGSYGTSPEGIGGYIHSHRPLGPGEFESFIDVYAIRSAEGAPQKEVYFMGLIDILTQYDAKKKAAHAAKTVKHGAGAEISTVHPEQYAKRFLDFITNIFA

The next assay addresses T2, MEK5 (Homo sapiens, UniProt Q13163).
T2 construct: gene MAP2K5
T2 sequence (Q13163 1-448): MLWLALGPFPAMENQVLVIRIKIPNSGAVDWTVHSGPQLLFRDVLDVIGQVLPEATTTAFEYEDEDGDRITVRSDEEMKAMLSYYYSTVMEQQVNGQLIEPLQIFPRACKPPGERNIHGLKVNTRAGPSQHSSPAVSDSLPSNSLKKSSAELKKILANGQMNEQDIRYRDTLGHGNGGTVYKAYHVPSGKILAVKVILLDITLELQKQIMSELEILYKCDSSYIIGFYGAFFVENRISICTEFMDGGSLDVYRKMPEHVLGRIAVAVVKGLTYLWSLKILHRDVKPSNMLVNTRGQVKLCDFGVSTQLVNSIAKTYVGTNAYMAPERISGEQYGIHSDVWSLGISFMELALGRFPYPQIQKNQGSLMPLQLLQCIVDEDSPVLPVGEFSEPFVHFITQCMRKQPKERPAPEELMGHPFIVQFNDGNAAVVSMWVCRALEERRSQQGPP

The target in another assay is T3, LATS1 (Homo sapiens, UniProt O95835).
T3 sequence (O95835 1-1130): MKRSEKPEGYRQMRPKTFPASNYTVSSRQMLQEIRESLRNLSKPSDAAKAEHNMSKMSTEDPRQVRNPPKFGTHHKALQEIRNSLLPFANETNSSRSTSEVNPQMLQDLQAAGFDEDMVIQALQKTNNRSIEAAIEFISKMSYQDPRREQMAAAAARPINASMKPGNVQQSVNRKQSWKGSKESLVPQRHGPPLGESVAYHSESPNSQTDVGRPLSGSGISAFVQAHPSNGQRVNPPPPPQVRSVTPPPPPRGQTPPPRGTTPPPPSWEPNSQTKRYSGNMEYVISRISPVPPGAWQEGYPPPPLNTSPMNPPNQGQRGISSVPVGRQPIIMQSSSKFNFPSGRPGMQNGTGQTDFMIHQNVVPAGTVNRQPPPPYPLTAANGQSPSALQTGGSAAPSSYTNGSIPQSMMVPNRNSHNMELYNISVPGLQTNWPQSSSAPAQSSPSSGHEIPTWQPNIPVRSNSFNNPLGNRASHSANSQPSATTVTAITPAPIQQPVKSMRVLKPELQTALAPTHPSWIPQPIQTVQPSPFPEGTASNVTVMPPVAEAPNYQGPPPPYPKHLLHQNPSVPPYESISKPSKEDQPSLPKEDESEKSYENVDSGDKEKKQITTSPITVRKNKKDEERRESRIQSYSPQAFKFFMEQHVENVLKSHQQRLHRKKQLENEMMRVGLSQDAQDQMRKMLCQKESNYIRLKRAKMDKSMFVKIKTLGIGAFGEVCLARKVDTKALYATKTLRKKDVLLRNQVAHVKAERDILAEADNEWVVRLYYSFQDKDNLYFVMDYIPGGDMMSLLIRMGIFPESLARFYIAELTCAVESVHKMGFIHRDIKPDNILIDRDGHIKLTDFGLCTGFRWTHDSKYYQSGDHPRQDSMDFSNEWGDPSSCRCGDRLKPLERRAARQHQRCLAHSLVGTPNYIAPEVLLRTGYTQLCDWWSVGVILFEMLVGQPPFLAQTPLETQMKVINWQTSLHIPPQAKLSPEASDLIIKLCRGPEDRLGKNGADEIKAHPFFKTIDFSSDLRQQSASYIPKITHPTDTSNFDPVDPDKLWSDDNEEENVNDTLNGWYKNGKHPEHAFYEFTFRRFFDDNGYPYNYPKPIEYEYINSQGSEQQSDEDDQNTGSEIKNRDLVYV

The mark [1] stands for this setting: read-out: Percent control / Acalabrutinib.
[2] abbreviates: read-out: Percent control / Ibrutinib.
The mark [3] stands for this setting: read-out: Percent control / Tirabrutinib.
Where [4] appears, read: read-out: Percent control / Zanubrutinib.

CAMK1D, sequence (Q8IU85 whole entry): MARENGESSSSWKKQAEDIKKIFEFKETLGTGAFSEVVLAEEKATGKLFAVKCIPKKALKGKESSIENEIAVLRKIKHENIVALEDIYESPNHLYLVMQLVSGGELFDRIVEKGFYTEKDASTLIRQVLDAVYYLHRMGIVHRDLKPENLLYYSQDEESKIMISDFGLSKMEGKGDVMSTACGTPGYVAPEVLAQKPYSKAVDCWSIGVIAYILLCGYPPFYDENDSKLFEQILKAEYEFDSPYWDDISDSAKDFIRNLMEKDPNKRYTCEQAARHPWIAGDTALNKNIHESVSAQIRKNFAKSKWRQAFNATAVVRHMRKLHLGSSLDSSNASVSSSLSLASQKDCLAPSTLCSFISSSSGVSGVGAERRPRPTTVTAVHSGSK
PDGFRB, sequence (P09619 whole entry): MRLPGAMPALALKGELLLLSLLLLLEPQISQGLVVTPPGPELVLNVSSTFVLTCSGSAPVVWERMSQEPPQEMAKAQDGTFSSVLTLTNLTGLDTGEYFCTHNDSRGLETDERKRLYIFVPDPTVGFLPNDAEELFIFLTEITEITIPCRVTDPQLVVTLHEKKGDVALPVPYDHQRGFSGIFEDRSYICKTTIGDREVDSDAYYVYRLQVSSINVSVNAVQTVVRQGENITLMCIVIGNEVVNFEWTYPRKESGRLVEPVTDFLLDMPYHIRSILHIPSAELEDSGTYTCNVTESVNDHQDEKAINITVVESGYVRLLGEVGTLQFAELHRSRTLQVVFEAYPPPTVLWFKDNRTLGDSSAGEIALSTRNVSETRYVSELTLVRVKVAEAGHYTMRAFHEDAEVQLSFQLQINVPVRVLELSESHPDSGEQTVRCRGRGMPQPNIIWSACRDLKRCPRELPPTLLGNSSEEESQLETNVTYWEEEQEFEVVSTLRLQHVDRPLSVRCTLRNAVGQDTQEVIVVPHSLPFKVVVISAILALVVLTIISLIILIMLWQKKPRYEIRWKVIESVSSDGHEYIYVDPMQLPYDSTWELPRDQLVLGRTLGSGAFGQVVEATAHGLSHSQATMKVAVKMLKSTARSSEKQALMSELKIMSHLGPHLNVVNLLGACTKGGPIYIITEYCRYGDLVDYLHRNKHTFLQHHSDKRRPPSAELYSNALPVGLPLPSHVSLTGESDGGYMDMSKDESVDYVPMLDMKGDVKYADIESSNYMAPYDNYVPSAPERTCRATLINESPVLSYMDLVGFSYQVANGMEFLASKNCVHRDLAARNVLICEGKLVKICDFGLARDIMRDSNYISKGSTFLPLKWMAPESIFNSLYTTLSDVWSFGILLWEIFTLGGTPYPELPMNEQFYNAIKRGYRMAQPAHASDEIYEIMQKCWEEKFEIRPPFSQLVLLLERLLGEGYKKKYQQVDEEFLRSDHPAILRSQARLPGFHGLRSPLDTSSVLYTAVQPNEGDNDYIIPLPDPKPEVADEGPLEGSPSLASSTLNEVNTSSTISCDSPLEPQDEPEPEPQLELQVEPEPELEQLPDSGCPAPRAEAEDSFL
MELK, sequence (Q14680 whole entry): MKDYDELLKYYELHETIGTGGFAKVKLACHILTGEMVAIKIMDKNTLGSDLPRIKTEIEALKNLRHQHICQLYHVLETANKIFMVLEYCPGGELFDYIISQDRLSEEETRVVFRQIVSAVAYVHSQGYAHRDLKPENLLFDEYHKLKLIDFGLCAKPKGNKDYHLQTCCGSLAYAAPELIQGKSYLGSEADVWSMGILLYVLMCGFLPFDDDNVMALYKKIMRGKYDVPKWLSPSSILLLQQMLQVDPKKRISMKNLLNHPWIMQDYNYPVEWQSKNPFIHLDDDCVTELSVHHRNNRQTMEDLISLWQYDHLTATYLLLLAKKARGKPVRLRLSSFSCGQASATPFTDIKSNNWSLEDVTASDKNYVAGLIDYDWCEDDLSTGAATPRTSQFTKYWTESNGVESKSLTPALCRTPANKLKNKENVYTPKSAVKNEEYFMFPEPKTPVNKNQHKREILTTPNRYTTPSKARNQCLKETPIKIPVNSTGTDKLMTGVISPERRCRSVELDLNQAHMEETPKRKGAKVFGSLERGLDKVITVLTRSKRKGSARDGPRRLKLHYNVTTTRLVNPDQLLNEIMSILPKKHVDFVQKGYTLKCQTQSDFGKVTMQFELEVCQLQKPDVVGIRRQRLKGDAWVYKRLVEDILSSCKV
EGFR, sequence (P00533 whole entry): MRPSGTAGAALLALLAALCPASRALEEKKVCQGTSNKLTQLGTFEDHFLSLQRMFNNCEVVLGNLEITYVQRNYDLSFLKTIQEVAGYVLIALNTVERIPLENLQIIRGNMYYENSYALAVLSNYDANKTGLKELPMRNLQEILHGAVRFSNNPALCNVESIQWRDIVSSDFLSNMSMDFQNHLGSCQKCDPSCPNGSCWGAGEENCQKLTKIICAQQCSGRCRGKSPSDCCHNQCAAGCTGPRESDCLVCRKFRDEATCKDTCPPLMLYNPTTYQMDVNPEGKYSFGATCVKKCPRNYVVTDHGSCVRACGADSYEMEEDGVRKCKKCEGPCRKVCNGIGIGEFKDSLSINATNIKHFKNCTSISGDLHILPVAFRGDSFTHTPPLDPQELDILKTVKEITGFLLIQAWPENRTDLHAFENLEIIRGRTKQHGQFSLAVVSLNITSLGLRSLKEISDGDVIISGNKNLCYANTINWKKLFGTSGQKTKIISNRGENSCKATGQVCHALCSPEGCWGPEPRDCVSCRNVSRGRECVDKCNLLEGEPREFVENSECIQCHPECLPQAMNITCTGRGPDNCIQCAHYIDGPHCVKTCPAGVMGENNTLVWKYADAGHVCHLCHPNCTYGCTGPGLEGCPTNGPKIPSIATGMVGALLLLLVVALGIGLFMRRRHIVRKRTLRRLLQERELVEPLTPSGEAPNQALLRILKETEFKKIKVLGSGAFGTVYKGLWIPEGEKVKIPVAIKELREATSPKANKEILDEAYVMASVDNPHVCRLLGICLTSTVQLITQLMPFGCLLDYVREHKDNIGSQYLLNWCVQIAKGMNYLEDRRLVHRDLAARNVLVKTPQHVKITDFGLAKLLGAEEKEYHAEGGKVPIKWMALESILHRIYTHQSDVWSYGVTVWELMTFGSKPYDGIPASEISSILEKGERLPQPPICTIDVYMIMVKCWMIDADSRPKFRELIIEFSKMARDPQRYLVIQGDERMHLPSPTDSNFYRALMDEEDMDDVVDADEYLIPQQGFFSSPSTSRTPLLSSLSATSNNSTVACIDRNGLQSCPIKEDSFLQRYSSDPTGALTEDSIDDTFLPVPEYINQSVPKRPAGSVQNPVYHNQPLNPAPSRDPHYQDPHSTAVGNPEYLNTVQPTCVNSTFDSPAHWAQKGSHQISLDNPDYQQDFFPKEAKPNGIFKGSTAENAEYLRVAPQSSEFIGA
WEE1, sequence (P30291 whole entry): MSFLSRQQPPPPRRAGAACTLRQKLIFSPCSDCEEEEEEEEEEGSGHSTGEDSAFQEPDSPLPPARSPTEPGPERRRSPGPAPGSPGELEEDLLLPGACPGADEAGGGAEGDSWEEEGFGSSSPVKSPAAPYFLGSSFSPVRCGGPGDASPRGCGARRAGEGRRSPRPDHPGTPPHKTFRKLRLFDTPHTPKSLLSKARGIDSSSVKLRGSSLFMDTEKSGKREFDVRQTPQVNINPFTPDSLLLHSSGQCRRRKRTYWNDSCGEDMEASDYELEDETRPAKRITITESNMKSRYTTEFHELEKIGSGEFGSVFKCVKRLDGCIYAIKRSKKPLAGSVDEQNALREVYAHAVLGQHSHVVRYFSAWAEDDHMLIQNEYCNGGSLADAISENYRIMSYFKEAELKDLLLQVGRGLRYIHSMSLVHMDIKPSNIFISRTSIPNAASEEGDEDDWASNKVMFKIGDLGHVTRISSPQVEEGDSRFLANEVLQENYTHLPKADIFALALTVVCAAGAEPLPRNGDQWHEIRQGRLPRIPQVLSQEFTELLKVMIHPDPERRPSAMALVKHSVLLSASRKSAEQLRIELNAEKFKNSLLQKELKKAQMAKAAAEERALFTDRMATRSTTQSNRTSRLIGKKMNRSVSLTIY

Regarding `CC#CC(=O)N1CCC[C@H]1c1nc(-c2ccc(C(=O)Nc3ccccn3)cc2)c2c(N)nccn12` [Acalabrutinib], the remaining binding at 0.3 µM on CDK2 (setting [1]) came out at 86%; on CAMK1D (setting [1]) it was 71%; on PIP5K2C (setting [1]), 90%; on MELK (setting [1]) it was 81%; at PDGFRB (setting [1]) it was 93%; at MEK5 (setting [1]) it was 71%. Also, the remaining binding at 0.3 µM at LATS1 (setting [1]) was found to be 79%; on EGFR (setting [1]) it was 82%; at WEE1 (setting [1]) it was 80%.
As for `C=CC(=O)N1CCC[C@@H](n2nc(-c3ccc(Oc4ccccc4)cc3)c3c(N)ncnc32)C1` [Ibrutinib], the remaining binding at 0.3 µM on CAMK1D (setting [2]) stood at 97%; on PIP5K2C (setting [2]), 81%; at MELK (setting [2]), 74%; on PDGFRB (setting [2]), 38%; on MEK5 (setting [2]) it was 0.6%; on LATS1 (setting [2]), 83%. Moreover, the remaining binding at 0.3 µM at EGFR (setting [2]) was found to be 0.2%; on WEE1 (setting [2]), 89%.
Take `CC#CC(=O)N1CC[C@@H](n2c(=O)n(-c3ccc(Oc4ccccc4)cc3)c3c(N)ncnc32)C1` [Tirabrutinib]: the remaining binding at 0.3 µM at CDK2 (setting [3]) is 82%; on CAMK1D (setting [3]) it was 99%; on MELK (setting [3]), 82%; at PDGFRB (setting [3]), 79%; at MEK5 (setting [3]), 41%; at EGFR (setting [3]), 100%. Also, the remaining binding at 0.3 µM at WEE1 (setting [3]) is 93%.
Regarding `C=CC(=O)N1CCC([C@@H]2CCNc3c(C(N)=O)c(-c4ccc(Oc5ccccc5)cc4)nn32)CC1` [Zanubrutinib], the remaining binding at 0.3 µM worked out at 99% at CDK2 (setting [4]); 81% on CAMK1D (setting [4]); 92% on PIP5K2C (setting [4]); 59% on MELK (setting [4]); 100% on PDGFRB (setting [4]); 72% on LATS1 (setting [4]). Also, the remaining binding at 0.3 µM at WEE1 (setting [4]) came to 100%.
